Values quoted from earlier work as cited in patent US10226403B2, “Composition and method for using medicament for endodontic irrigation, stem cell preparation and tissue regeneration” (priority 2012, dated 2019).
Like-named read-outs stand apart in the source and are kept apart here.

SMILES: OCl [Sodium hypochlorite, sodium hypochlorite]
- effectiveness: highly effective
- effectiveness (at 1.3-2.5%): ineffective
